Consider two molecules from US11612651B2, “Steroid acid-based immunogen enhancers” (priority 2021, dated 2023).

No end group written: not given here.

Assay [1] relates to OVA-responding OT-I (CD8) cells. Description: Antigen cross-presentation assay: pulsed BMDCs co-cultured with OT-I CD8 T-cells, IFN-gamma by ELISA. It is filed as cell-based, mouse. Particulars: BMDCs pulsed 3 h with highest enhancer:OVA ratios tested; co-culture with OT-I CD8 T-cells; FIG. 1. The method, then:
Mouse BMDCs were pulsed for 3 hours with antigen (OVA) alone, cholic acid (CA) alone, a cholic acid-NLS peptide conjugate (CA-SV40NLS) alone, different ratios of CA to antigen (CA:OVA=22:1, 12:1, 8:1, 4:1, and 2:1), or different ratios of an cholic acid-NLS peptide conjugate to antigen (CA-SV40NLS:OVA=22:1, 12:1, 8:1, 4:1, and 2:1). The pulsed BMDCs were then co-cultured with OT-I mouse-derived CD8 T-cells and IFN-gamma levels were quantified as a measure of cross presentation activity.
Mouse bone marrow derived dendritic cells (BMDCs) were generated by flushing the whole marrow from mouse femurs using RPMI™ 1640 supplemented with 10% fetal bovine serum (FBS), 50 U/mL Penicillin-Streptomycin, 2 mM L-glutamine, 10 mM HEPES, 1% MEM Non-essential Amino Acids, 1 mM Sodium Pyruvate, 0.5 mM beta-mercaptoethanol. […] Mature DCs were assessed by flow cytometry for their surface expression of CD3, CD19, NK1.1, CD11c, CD80, CD86, and I-Ab.
To evaluate antigen cross-presentation, cells were seeded at 25×10^3 cells per well in 24-well plates (Corning; Massachusetts, United States), then pulsed with antigens or antigen-containing mixtures at different concentrations for 3 h. […] After 72 hours, supernatants were collected and used to quantify cytokine production by commercial enzyme-linked immunosorbent assays (ELISAs). […]
In general terms: In an ELISA, binding on a coated surface is turned into a signal by an enzyme label.

Assay [2] has as its system B3Z cells. Description: Antigen-presentation assay using the B3Z reporter system, BMDCs as antigen presenting cells. Type of assay: cell-based, mouse. The source says:
For this experiment, BMDCs were used as the antigen presenting cells (n=6) and the molar ratio (bile acid/peptide/conjugate): antigen was 4:1. Controls tested included no antigen (“PBS”), antigen alone (“OVA alone”), unconjugated NLS peptide (“SV40NLS”), unconjugated cholic acid mixed with OVA (“CA”), and the positive control peptide SIINFEKL (SEQ ID NO: 9) mixed with OVA (“SIINFEKL”). The dashed line represents the signal obtained with OVA alone. Bile acids: cholic acid (CA); glycodeoxycholic acid (GDCA); glycochenodeoxycholic acid (GCDCA); ursodeoxycholic acid (UDCA); and lithocholic acid (LCA).
The dashed line represents the signal obtained with OVA alone. The readout was taken after 24 h of incubation and error bars represent SD (n=6). For this experiment, BMDCs were used as the antigen presenting cells.
The dashed line represents the signal obtained with OVA alone. Readout was taken after 24 h of incubation from a single experiment. The molar ratio of CA-peptide conjugate: OVA was 22:1. For this experiment, BMDCs were used as the antigen presenting cells.
For this experiment, BMDCs were used as the antigen presenting cells. The dashed line represents the signal obtained with OVA alone. Readout was taken after 24 h of incubation from a single experiment. The molar ratio of CA-peptide conjugate: OVA was as follows: CA-GWG-SV40NLS (12:1); CA-hnRNP M NLS (12:1); CA-NLS2-RPS17 NLS (22:1); CA-HuR NLS (22:1); CA-cMyc NLS (2:1); CA-NLS3-RPS17 NLS (22:1); CA-NLS2-RG-RPS17 NLS (2:1); CA-PQBP1 NLS (8:1); CA-hnRNPA1 M9 NLS (22:1); and CA-SV40 NLS (2:1).
(§1) Various bile acid-NLS conjugates were screened using the B3Z reporter system. The B3Z cell line is a T-cell hybridoma specific for the H2-K^b-SIINFEKL complex. Once activated via its TCR, the LacZ reporter gene (under the NFAT promoter control) is expressed. Briefly, 1.5×10^5 BMDCs or 2.5×10^5 MSCs were co-cultured with 5×10^4 B3Z cells treated with the mixing conditions of ovalbumin (OVA) and bile acid-NLS conjugates for overnight at 37° C. with 5% CO2. The following day, all cells were washed twice with PBS (pH 7.4), and the cell pellets were lysed by adding 100 μL of a lysis buffer containing 0.15 mM chlorophenol red-beta-D-galactopyranoside (CPRG) substrate (Calbiochem, La Jolla, Calif.), 0.125% NP40 (EMD Sciences, La Jolla, Calif.), 9 mM MgCl2 (Aldrich, USA) and 100 mM 2-mercaptoethanol in PBS. After a 5- or 24-h incubation at 37° C., absorbance was taken at 570 nm with 636 nm as the reference wavelength. For these experiments, OVA was re-suspended in PBS (pH 7.3) at 5-10 mg/mL. The different bile acid-NLS conjugates were re-suspended in H2O at 10 mg/mL. Bile acid-NLS conjugate: antigen mixtures were prepared at different molar ratios according to Table 2.
Variants of CA-SV40NLS were synthesized in order to explore structure-activity relationships relating to the antigen cross-presentation enhancing activity observed for this conjugate. More particularly, conjugates having different bile acids conjugated to the SV40NLS peptide (SEQ ID NO: 1) were synthesized and their effect on antigen presentation was evaluated by using the B3Z reporter system with the OVA antigen as described in Example 1. […] In FIG. 2, no increase in antigen cross-presentation over the antigen alone (“OVA”) was observed when OVA was mixed with either unconjugated cholic acid (“CA”) or SV40NLS peptide (“SV40NLS”), although lower sensitivity of the B3Z reporter system as compared to the OT-I CD8 T cell-based assay used in FIG. 1 may have been a factor.
(§2) Further variants of CA-SV40NLS were synthesized in which the SV40NLS peptide was replaced with peptides comprising other NLS's (Table 3) and the antigen presentation activities of the CA-NLS peptide conjugates were evaluated using the B3Z reporter system as described in Example 1. The following conjugate:antigen molar ratios were tested for each conjugate: 2:1, 4:1, 8:1, 12:1 and 22:1. […]

For assay [3], the system named is GII.3 human norovirus. The settings on record: host intestinal cells; free bile acids; cited from earlier work.
For assay [4], the system named is B3Z cells. As to the kind of experiment: Antigen-presentation assay using the B3Z reporter system, cross-presenting MSC line as antigen presenting cells. Particulars: compared to OVA alone or OVA mixed with CA-SV40NLS, FIG. 6. It is filed as cell-based. The method, then:
For this experiment, a cross-presentation mesenchymal stromal cell (MSC) line was used as the antigen presenting cells. The dashed line represents the signal obtained with OVA alone. Readout was taken after 24 h of incubation. The molar ratio of CA-peptide conjugate: OVA was as follows: CA-GWG-SV40NLS (2:1); CA-hnRNP M NLS (8:1); CA-hnRNP D NLS (12:1); CA-NLS2-RG-RPS17 (4:1); CA-cMyc NLS (12:1); CA-HuR NLS (12:1); CA-Tus NLS (2:1); CA-NLS2-RPS17 NLS (4:1); CA-PQBP1 NLS (12:1); CA-hnRNPA1 M9 NLS (2:1); and CA-SV40 NLS (2:1).
as §1, §2

Assay [5] has as its system cross-presenting mesenchymal stromal cell (MSC) line. Description: Antigen internalization: MSC line pulsed with OVA labelled with Alexa Fluor 647, flow cytometry. Type of assay: cell-based. The settings on record: various conjugate:OVA molar ratios, FIGS. 7A-7D. The method, then: FIGS. 7A to 7D show the effect of different NLS peptides on the antigen internalization activity of cholic acid-NLS peptide conjugates. For this experiment, a cross-presenting mesenchymal stromal cell (MSC) line was used as the antigen presenting cells, which were pulsed with OVA labelled with Alexa Fluor 647 (i.e., OVA^647)™. OVA^647 fluorescence was measured by flow cytometry. Different ratios of CA (NLS1 RPS17 [FIG. 7A]; NLS3 RPS17 [FIG. 7B]; PQBP-1 [FIG. 7C]; and hnRNPA1 M9 NLS [FIG. 7D]) to antigen (CA:OVA=22:1, 12:1, 8:1, 4:1, and 2:1) were tested (hnRNPA1 M9 NLS at 2:1).
(§3) To further dissect the effect of bile acid peptide conjugates on antigen presentation, antigen internalization and processing were evaluated. MSC cell lines were pulsed with OVA-labelled with AF647 in the presence of various molar ratios of different bile acid peptide conjugates, NLS1-RPS17 [FIG. 7A]; NLS3 RPS17 [FIG. 7B]; PQBP-1 [FIG. 7C]; and hnRNPA1 M9 NLS [FIG. 7D]) and fluorescence was assessed by flow cytometry. […] OVA processing was assessed by pulsing MSC cell lines with DQ™-Ovalbumin (OVA-DQ) in the presence of the same bile acid peptide conjugates as in FIGS. 7A to 7D.

Assay [6] has the same test system. Description: Antigen processing: MSC line pulsed with DQ Ovalbumin (OVA-DQ), flow cytometry. Type of assay: cell-based. The settings on record: various conjugate:OVA molar ratios, FIGS. 8A-8D. The method, then: FIGS. 8A to 8D show the effect of different NLS peptides on the antigen processing activity of cholic acid-NLS peptide conjugates. For this experiment, a cross-presenting mesenchymal stromal cell (MSC) line was used as the antigen presenting cells, which were pulsed with DQ™ Ovalbumin (i.e., OVA^DQ). OVA^DQ fluorescence was measured by flow cytometry. Different ratios of CA (NLS1 RSP17 [FIG. 8A]; NLS3 RPS17 [FIG. 8B]; PQBP-1 [FIG. 8C]; and hnRNPA1 M9 NLS [FIG. 8D]) to antigen (CA:OVA=22:1, 12:1, 8:1, 4:1, and 2:1) were tested (hnRNPA1 M9 NLS at 2:1).
as §3
For orientation: In flow cytometry, cells or beads pass a laser one at a time.

Regarding `C[C@H](CCC(=O)O)[C@H]1CC[C@H]2[C@@H]3[C@H](O)C[C@@H]4C[C@H](O)CC[C@]4(C)[C@H]3C[C@H](O)[C@]12C` [CA, cholic acid], the “increase in the amount of IFN-gamma produced, as compared to BMDCs pre-pulsed with the OVA antigen alone” value in assay [1] is on record as “up to 3 fold”. For the same molecule, the “antigen cross-presentation (B3Z response) compared with OVA alone” value in assay [2] (BMDCs, molar ratio (bile acid/peptide/conjugate):antigen 4:1, mixed with OVA, FIG. 2) is “no increase”. Besides, the “effect on GII.3 human norovirus infection and replication” value in assay [3] was “increase GII.3 human norovirus infection and replication”.

Regarding “CA-PQBP1 NLS: cholic acid conjugated to peptide CADREEGKERRHHRREELAPY (SEQ ID NO: 6) (also: cholic acid conjugate, site not given here)”, the “antigen-presentation activity of cholic acid-NLS peptide conjugate (B3Z response OD570)” value is listed as “strikingly high antigen-presentation activity” in assay [2] (BMDCs as antigen presenting cells, mixed with OVA at best conjugate:antigen ratio, FIGS. 3-5) and “strikingly high antigen-presentation activity” in assay [4]. The “OVA internalization (OVA-AF647 fluorescence)” value in assay [5] was “enhance OVA internalization”. For the same molecule, in assay [6], the “OVA processing (OVA-DQ fluorescence)” value was “enhance OVA processing”.
